Source: PMC9763021, “Comprehensive Assessment of Biomolecular Interactions of Morpholine-Based Mixed Ligand Cu(II) and Zn(II) Complexes of 2,2′-Bipyridine as Potential Anticancer and SARS-CoV-2 Agents: A Synergistic Experimental and Structure-Based Virtual Screening” (Bioinorganic Chemistry and Applications, 2022)

How the values were obtained:
[1] = test system: Aspergillus niger; test: Agar disc diffusion, strain H; assay type: cell-based; design: (inhibition %): concentration or dose not given beside the values; details: for diameter of the clear zone inhibition: control = 6 mm
Protocol: (§1) In-vitro antimicrobial properties were evaluated for all samples by the agar disc diffusion method towards different fungal and bacterial strains. Additionally, the reported inhibition zone values were comparatively analyzed with the standard antifungal drugs ketoconazole and amphotericin B as well as the standard antibiotic medications streptomycin and amikacin.
(§2) The current research has a curious focus on the in vitro antimicrobial properties of biological systems because these studies are crucial for developing effective antibacterial and antifungal medications. […] It can also be spelled out based on the chelation theory proposed by Overtone and Tweedy. Chelation theory points out that the partial exchanging of the positive charge of the metal center with donor moieties, and overlap of the ligand orbitals will reduce the greater degree of the metal ion's polarity, which ultimately rises the delocalization of π and d electrons over the full chelated ring system. By raising the size of the metal ion due to the retarding of polarization, chelation may also enhance the complexes' lipophilic characteristics, which further stimulate the lipid membrane permeability and break down the bacteria' enzymes responsible for cell wall formation, therefore slowing down the regular cell processes. By preventing the production of cell walls/proteins/DNA, including by obstructing folate metabolism and the cytoplasmic membrane, antimicrobial drugs frequently either fully eliminate microbes or only prevent their cell growth. Additionally, the samples' mode of action may be employed in disrupting the cell's respiration process by forming an H-bond during the morpholine-fused iminic group coordinated with the active metal center of its components, inhibiting proliferation of the cell. […] The difference in the antimicrobial efficacy of some of the compounds towards various microorganisms influences on the impermeability of the cells of the germs or the diversity of ribosomes of the microbes. The % of the inhibition of all substances is estimated from (45) (Table 9).
(§3) (A, B, C, D, and E are represented as gram negative bacteria species Escherichia coli, Salmonella enteric serovar typhi, Salmonella enteric serovar typhi, Pseudomonas aeruginosa, and Shigella flexneri, respectively. F & G are denoted as gram positive bacteria species Staphylococcus aureus and Bacillus cereus. H, I, and J are represented as fungal strains Aspergillus niger, Candida albicans, and Mucor indicus. Standard drugs for bacterial strains: Amikacin & Streptomycin Standard drugs for fungal strains: Ketoconazole and Amphotericin B. [Control (DMSO) = 6 mm].(44) Inhibition %=T–C/T×100, where T and C are represented as the diameter of microbial growth of the sample plates and the control plate (6 mm), respectively. Error limits ±2.5–5.0% (P ≤ 0.05).

[2] = test system: Candida albicans; test: Agar disc diffusion, strain I; assay type: cell-based; design: (inhibition %): concentration or dose not given beside the values; details: for diameter of the clear zone inhibition: control = 6 mm
Protocol: as §1, §2, §3

[3] = test system: Mucor indicus; test: Agar disc diffusion, strain J; assay type: cell-based; design: (inhibition %): concentration or dose not given beside the values; details: for diameter of the clear zone inhibition: control = 6 mm
Protocol: as §1, §2, §3

[4] = DPPH radical scavenging assay; assay type: biochemical; details: for % Inhibition DPPH: 517 nm
Protocol: (§4) All samples were evaluated for their scavenging ability with the help of UV-visible spectrophotometer at different concentrations of 40, 80, 120, 160, 200, and 240 μM [6, 28]. While performing the antioxidant properties for the DPPH, hydroxyl, superoxide, and nitric oxide radical scavenging, the absorbance at 517, 230, 590, and 546 nm, respectively, was closely observed. In addition, the observed IC50 values of all samples were compared with ascorbic acid.
The colour of an aqueous or methanol solution changes from deep purple to pale yellow when DPPH, a stable chromogen free radical, combines with an antioxidant molecule, which means that DPPH quickly absorbs the hydrogen or electrons from the donor groups. In this case, for the baseline correction, a blank DPPH solution in the absence of a test compound was employed, and 517 nm (ε = 8320 M^−1·cm^−1) was attained to have a significant absorption maximum. […] The DPPH radicals are reduced by an antioxidant compound (AH), in which the reduction of electronic absorbance for each compound was vigilantly noted at 517 nm. The capacity to block radicals improves as the sample concentration increases. The assessed percentage of maximum inhibition for all substances was found at 240 μM in the subsequent order: (ascorbic acid) (85.65) > (1a) 68.64 > (2a) 59.55 > (HL) 52.45. […] Moreover, the % of scavenging or maximum inhibition for all substances is estimated with the aid of equation (44) (Table S14).(43) Scavanging%=A0−AS/A0×100

[5] = Hydroxyl radical scavenging assay; assay type: biochemical; details: for % Inhibition hydroxyl radical: 230 nm
Protocol: as §4
Hydrogen peroxide receives electrons from antioxidant molecules and then neutralizes them into a water molecule. ^●OH inhibition capability was determined from the % of inhibition for all test substances at 230 nm.

[6] = Superoxide scavenging assay; assay type: biochemical; details: for % Inhibition superoxide: 590 nm
Protocol: as §4
A vital enzyme catalyst in the body's defence against free radicals, superoxide dismutase (SOD) quickly and efficiently reduces toxicity and cellular damage by exchanging superoxide with water (or) harmless molecules. The % of inhibition for all substances was analyzed at 590 nm. The outcomes were obtained in the subsequent order: (ascorbic acid) 84.85 > (1a) 67.17 > (2a) 58.18 > (HL) 50.42.

[7] = Nitric oxide scavenging assay; assay type: biochemical; details: for % Inhibition nitric oxide: 546 nm
Protocol: as §4
The diffusible nitric oxide free radical is a crucial chemical mediator, which assists in overcoming diverse chronological human diseases. The NO free radical scavenging potential for all test samples was also carried out at 546 nm. It monitored the alterations in electronic absorption intensity of the nitric oxide radical inhibition outcome concerning the sample concentrations. When the test sample concentration rises, the nitric oxide free inhibition effectiveness also increases. The measured % of nitric oxide radical scavenging capability for all samples at 240 μM was obtained in the subsequent order (ascorbic acid) 72.73 > (1a) 65.47 > (2a) 58.43 > (HL) 51.62.

[8] = test system: calf thymus deoxyribonucleic acid; test: DNA binding by viscometric (hydrodynamic) technique
Protocol: The titrations were performed for all compounds including EB (control) at 20, 40, 60, 80, and 100 μM concentrations. In the Ostwald viscometer, these substances were also separately treated with the calf thymus deoxyribonucleic acid solution (100 μM).
Hydrodynamic findings can be utilized to assess the alteration of DNA length and afford details on the binding tendency between small molecules and biomolecules. As a result of their sensitivity to DNA contour length changes, which implies that the average distance between each monomer (cl = 0.338 nm/bp for B-form DNA), the DNA binding properties of all test compounds were further validated by this method. According to the Lerman concept, interactions between small molecules and deoxyribonucleic acid via covalent and noncovalent bindings are often possible. When a chemical substance interacts with the deoxyribonucleic acid double helix, the contour length of DNA increases via intercalation and leads to an increase in the absolute viscosity. Meanwhile, if DNA viscosity is not affected during interactions, which leads to the responsible for the major/minor groove binding due to H-bond/Van der Waals interactions, electrostatic, partial, or nonclassical interaction modes. Therefore, analyzing the binding modes provides additional support for the findings as well as a crucial aspect of the conventional intercalation concept. In this case, it was observed that the absolute viscosity increased consistently along with the concentration of each substance at the fixed DNA concentration. The DNA must extend to facilitate the binding of ligands, which causes a considerable rise in DNA viscosity while small molecules intercalate into the DNA helix. According to equation (12), an increase in relative viscosity denotes an intercalation-induced lengthening of the deoxyribonucleic acid base pair. While adhering to the principle of excluding the nearest neighbors, intercalation entails inserting a planar molecule into a DNA base pair without rupturing the hydrogen bonds that hold the base pairs together. This causes a diminution in the DNA helical twist and an extension of the DNA. Moreover, a molecule can be presumed to bind to deoxyribonucleic acid by intercalation between base pairs if it causes lengthening and unwinding of the deoxyribonucleic acid base pairs. In this case, the relative viscosity of DNA gradually increases, while the […]. Moreover, the affinity interactions and their slope values were observed from the relative specific viscosity (η⁄η0)^1/3 plotted straight line contrasting [Compound]/[DNA], and absolute specific viscosity of deoxyribonucleic acid in the absence or presence of samples was evaluated using equation (12) (Table 3). […] The evaluated slope findings were in the subsequent sequence: (EB) 1.215 > (1a) 0.915 > (2a) 0.630 > (HL) 0.490 (Figure S21 and Table 3). […] Due to the existence of the 2,2′-bipyridine and morpholine-fused aromatic planar systems, compounds can interact with deoxyribonucleic acid robustly via intercalation. The outcomes were excellent in accordance with the observed outcomes of absorption spectral properties.(11) η/η0^1/3=tcomplex−t0/t0/tDNA−t0/t0, where η and η0 are represented as specific viscosity of DNA in the presence complex and specific viscosity of DNA alone, and t0, tDNA, and tcomplex are represented as the average flow time of the Tris-HCl buffer solution, the average flow time of DNA alone solution, and the average flow time of DNA interacted with the samples, respectively. Error limit is ±2.5% (P < 0.025).

Which “(inhibition %)” value [1] does the source give for `C[C@@H]1[C@H](O)[C@@H](C)/C=C/C=C/C=C/C=C/C=C/C=C/C=C/[C@H](O[C@@H]2O[C@H](C)[C@@H](O)[C@H](N)[C@@H]2O)C[C@@H]2O[C@](O)(C[C@@H](O)C[C@@H](O)[C@H](O)CC[C@@H](O)C[C@@H](O)CC(=O)O[C@H]1C)C[C@H](O)[C@H]2C(=O)O` [Amphotericin B, reference compound] here?
The value was 60%.

And the “diameter of the clear zone inhibition” value [1]?
The value was 15 mm.

And the “(inhibition %)” value [2]?
Its value is 65%.

What about the “diameter of the clear zone inhibition” value [2] of the same compound?
The value was 17 mm.

And the “(inhibition %)” value [3]?
Its value is 65%.

What about the “diameter of the clear zone inhibition” value [3] of the same compound?
The value was 17 mm.

What does the source list for `O=C1O[C@H]([C@@H](O)CO)C(O)=C1O` [Ascorbic acid, reference compound]?
IC50 [4]: 80 µM; % Inhibition DPPH ([4]; 40 µM): 41.63%; % Inhibition DPPH ([4]; 80 µM): 53.74%; % Inhibition DPPH ([4]; 120 µM): 58.95%; % Inhibition DPPH ([4]; 160 µM): 70.86%; % Inhibition DPPH ([4]; 200 µM): 82.75%; % Inhibition DPPH ([4]; 240 µM): 85.65%; IC50 [5]: 160 µM; % Inhibition hydroxyl radical ([5]; 40 µM): 20.73%; % Inhibition hydroxyl radical ([5]; 80 µM): 36.46%; % Inhibition hydroxyl radical ([5]; 120 µM): 47.87%; % Inhibition hydroxyl radical ([5]; 160 µM): 59.65%; % Inhibition hydroxyl radical ([5]; 200 µM): 65.64%; % Inhibition hydroxyl radical ([5]; 240 µM): 78.83%; IC50 [6]: 120 µM; % Inhibition superoxide ([6]; 40 µM): 29.64%; % Inhibition superoxide ([6]; 80 µM): 41.72%; % Inhibition superoxide ([6]; 120 µM): 55.63%; % Inhibition superoxide ([6]; 160 µM): 66.75%; % Inhibition superoxide ([6]; 200 µM): 72.55%; % Inhibition superoxide ([6]; 240 µM): 84.85%; IC50 [7]: 160 µM; % Inhibition nitric oxide ([7]; 40 µM): 28.55%; % Inhibition nitric oxide ([7]; 80 µM): 35.75%; % Inhibition nitric oxide ([7]; 120 µM): 43.65%; % Inhibition nitric oxide ([7]; 160 µM): 52.68%; % Inhibition nitric oxide ([7]; 200 µM): 63.72%; % Inhibition nitric oxide ([7]; 240 µM): 72.73%

With `CC[n+]1c(-c2ccccc2)c2cc(N)ccc2c2ccc(N)cc21` [EB (control), Ethidium bromide, reference compound] as the compound, how does the “Slope of (η/η0)^1/3 vs [Compound]/[DNA]” value [8] read?
The value was 1.215.

What about the “Relative specific viscosity (η/η0)^1/3” value ([8]; [complex]/[DNA] = 0.2) of the same compound?
The value was 1.01.

What about the “Relative specific viscosity (η/η0)^1/3” value ([8]; [complex]/[DNA] = 0.4) of the same compound?
The value was 1.35.

And the “Relative specific viscosity (η/η0)^1/3” value ([8]; [complex]/[DNA] = 0.6)?
The value was 1.63.

What about the “Relative specific viscosity (η/η0)^1/3” value ([8]; [complex]/[DNA] = 0.8) of the same compound?
Its value is 1.82.

And the “Relative specific viscosity (η/η0)^1/3” value ([8]; [complex]/[DNA] = 1.0)?
The value was 1.99.

What does the source list for `CC(=O)N1CCN(c2ccc(OCC3COC(Cn4ccnc4)(c4ccc(Cl)cc4Cl)O3)cc2)CC1` (stereo not shown) [Ketoconazole, reference compound]?
(inhibition %) [1]: 63%; diameter of the clear zone inhibition [1]: 16 mm; (inhibition %) [2]: 67%; diameter of the clear zone inhibition [2]: 18 mm; (inhibition %) [3]: 67%; diameter of the clear zone inhibition [3]: 18 mm
